Measurements published in patent US20180193274A1, “COMPOSITIONS FOR ILEO-JEJUNAL DRUG DELIVERY” (Principia Biopharma Inc., priority 2014, published 2018).
Read-outs that look alike come from different tables or passages of the source.

Legend:
[1] = Pharmacokinetic experiment comparing oral gavage, intra-duodenal and intra-jejunal dosing in rats; type: in vivo, Wister-Hans rats
Source text: FIG. 1 depicts the results of a pharmacokinetic experiment comparing oral and intra-duodenal gavage dosing of (R)-2-(3-(4-amino-3-(2-fluoro-4-phenoxyphenyl)-1H-pyrazolo[3,4-d]pyrimidin-1-yl)piperidine-1-carbonyl)-4-methyl-4-(4-(oxetan-3-yl)piperazin-1-yl)pent-2-enenitrile having E/Z ratio of about 9:1. The area under the curve (AUC) and the Cmax are plotted.
(R)-2-(3-(4-amino-3-(2-fluoro-4-phenoxyphenyl)-1H-pyrazolo[3,4-d]pyrimidin-1-yl)piperidine-1-carbonyl)-4-methyl-4-(4-(oxetan-3-yl)piperazin-1-yl)pent-2-enenitrile was dosed in 10 mg/mL aqueous citrate solution at 20 mg/kg to Wister-Hans rats. Anhydrous citric acid (0.5 equivalents) was added to the free base of (R)-2-(3-(4-amino-3-(2-fluoro-4-phenoxyphenyl)-1H-pyrazolo[3,4-d]pyrimidin-1-yl)piperidine-1-carbonyl)-4-methyl-4-(4-(oxetan-3-yl)piperazin-1-yl)pent-2-enenitrile. The experiment was repeated 3 times each with 2 separate arms, and one oral gavage arm was included in each study. Intra-jejunal (IJ) and intra-duodenal dosing was done in cannulated rats. In the first study, there was a 40-fold increase in the AUC for the IJ-dosed group compared to the PO group, and the metabolite present in the IJ-group was reduced 10-fold.

[2] = cited from earlier work
[3] = 20 mg/kg, intra-duodenal vs oral, FIG. 1
[4] = 20 mg/kg, intra-jejunal vs oral, FIG. 1

| Structure (SMILES) | AUC, ID dosing compared to PO dosing [1, 3] | Cmax, ID dosing compared to PO dosing [1, 3] | AUC, IJ dosing compared to PO dosing [1, 4] | Cmax, IJ dosing compared to PO dosing [1, 4] | increase in the AUC for the IJ-dosed group compared to the PO group ([1]; first study, 20 mg/kg in 10 mg/mL aqueous citrate solution, intra-jejunal vs oral gavage) | bioavailability as determined by AUC ([2]; administered intraduodenally) | bioavailability as determined by AUC ([2]; direct oral administration) |
| --- | --- | --- | --- | --- | --- | --- | --- |
| CC(C)(C=C(C#N)C(=O)N1CCC[C@@H](n2nc(-c3ccc(Oc4ccccc4)cc3F)c3c(N)ncnc32)C1)N1CCN(C2COC2)CC1 [(R)-2-(3-(4-amino-3-(2-fluoro-4-phenoxyphenyl)-1H-pyrazolo[3,4-d]pyrimidin-1-yl)piperidine-1-carbonyl)-4-methyl-4-(4-(oxetan-3-yl)piperazin-1-yl)pent-2-enenitrile] | increased | increased | substantially increased | substantially increased | 40 fold |  |  |
| C=CC(=O)N1CCC[C@@H](n2nc(-c3ccc(Oc4ccccc4)cc3)c3c(N)ncnc32)C1 [ibrutinib, 1-[(3R)-3-[4-Amino-3-(4-phenoxyphenyl)-1H-pyrazolo[3,4-d]pyrimidin-1-yl]piperidin-1-yl]prop-2-en-1-one] |  |  |  |  |  | 100% | 21% |
